Conditions: 101.33 kPa, Liquid; for speed of sound: Pulse-echo method; for mass density: Vibrating tube method

CCC(=O)[O-].C[NH2+]CCO [2-hydroxy-N-methylethanaminium propionate]
Conditions	mass density [kg/m3]	speed of sound [m/s]	viscosity [mPa·s]
308.15 K	1064.8	1660.5	118
308.4 K	1064.63	1659.8	–
308.65 K	1064.46	1659	–
308.9 K	1064.3	1658.3	–
309.15 K	1064.14	1657.6	–
309.4 K	1063.97	1656.8	–
309.65 K	1063.81	1656.1	–
309.9 K	1063.64	1655.4	–
310.15 K	1063.48	1654.6	105.84
310.4 K	1063.31	1653.9	–
310.65 K	1063.15	1653.1	–
310.91 K	1062.98	1652.4	–
311.16 K	1062.82	1651.7	–
311.4 K	1062.65	1650.9	–
311.65 K	1062.49	1650.2	–
311.91 K	1062.33	1649.4	–
312.16 K	1062.16	1648.7	–
312.41 K	1061.99	1648	–
312.66 K	1061.83	1647.2	–
312.91 K	1061.66	1646.5	–
313.15 K	–	–	93.38
313.16 K	1061.5	1645.7	–
313.4 K	1061.33	1645	–
313.66 K	1061.17	1644.2	–
313.9 K	1061	1643.5	–
314.15 K	1060.84	1642.8	–
314.4 K	1060.67	1642	–
314.65 K	1060.5	1641.3	–
314.9 K	1060.34	1640.5	–
315.15 K	1060.17	1639.8	–
315.41 K	1060.01	1639	–
315.65 K	1059.84	1638.3	81.2
315.91 K	1059.67	1637.6	–
316.16 K	1059.51	1636.8	–
316.41 K	1059.34	1636.1	–
316.66 K	1059.18	1635.4	–
316.91 K	1059.01	1634.6	–
317.16 K	1058.84	1633.9	–
317.4 K	1058.67	1633.2	–
317.66 K	1058.51	1632.4	–
317.91 K	1058.34	1631.7	–
318.15 K	–	–	70.3
318.16 K	1058.17	1630.9	–
318.41 K	1058.01	1630.2	–
318.65 K	1057.84	1629.4	–
318.9 K	1057.67	1628.7	–
319.16 K	1057.51	1628	–
319.41 K	1057.34	1627.2	–
319.65 K	1057.17	1626.5	64.18
319.91 K	1057	1625.7	–
320.16 K	1056.83	1624.9	–
320.41 K	1056.67	1624.2	–
320.65 K	1056.5	1623.4	–
320.91 K	1056.33	1622.7	–
321.15 K	1056.16	1622	–
321.41 K	1056	1621.2	–
321.66 K	1055.83	1620.4	–
321.9 K	1055.66	1619.7	–
322.15 K	1055.49	1618.9	–
322.41 K	1055.32	1618.2	–
322.65 K	1055.15	1617.5	–
